Test results taken from ChEMBL document CHEMBL5465560, “Selectivity Literature for EUbOPEN Chemogenomic Library” (2024).

What was measured:
[1] = molecular target: T1, Tyrosine-protein kinase ZAP-70 (Homo sapiens) (UniProt P43403); test: Selectivity interaction (Millipore kinase profiler) EUB0000124b ZAP70; conditions: at 10 µM
T1 sequence (whole entry): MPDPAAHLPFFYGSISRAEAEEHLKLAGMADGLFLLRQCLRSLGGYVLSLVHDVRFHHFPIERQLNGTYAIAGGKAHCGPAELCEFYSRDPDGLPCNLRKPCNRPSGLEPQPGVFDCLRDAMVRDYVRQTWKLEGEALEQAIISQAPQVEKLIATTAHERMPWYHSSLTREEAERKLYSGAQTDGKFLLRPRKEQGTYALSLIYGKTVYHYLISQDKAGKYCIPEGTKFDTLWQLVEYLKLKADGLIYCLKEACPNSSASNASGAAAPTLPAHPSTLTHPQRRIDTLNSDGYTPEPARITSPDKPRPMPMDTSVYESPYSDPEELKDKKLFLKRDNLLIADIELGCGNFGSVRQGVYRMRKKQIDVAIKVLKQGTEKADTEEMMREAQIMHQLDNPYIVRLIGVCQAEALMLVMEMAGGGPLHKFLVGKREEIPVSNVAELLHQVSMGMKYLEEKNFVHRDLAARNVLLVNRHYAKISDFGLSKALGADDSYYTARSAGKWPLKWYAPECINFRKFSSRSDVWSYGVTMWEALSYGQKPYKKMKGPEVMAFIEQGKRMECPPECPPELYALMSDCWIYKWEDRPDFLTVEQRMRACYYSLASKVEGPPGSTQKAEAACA

[2] = molecular target: Tyrosine-protein kinase BTK (Homo sapiens, UniProt Q06187); test: Selectivity interaction (ActivX KiNativ screen (kinase selectivity in THP-1 cell lysates)) EUB0000639a BTK; format: subcellular; conditions: lysate
[3] = molecular target: Tyrosine-protein kinase SYK (Homo sapiens, UniProt P43405); test: Selectivity interaction (ActivX KiNativ screen (kinase selectivity in THP-1 cell lysates)) EUB0000639a SYK; format: subcellular; conditions: lysate, at 0.01 µM
[4] = molecular target: Dual specificity mitogen-activated protein kinase kinase 1 (Homo sapiens, UniProt Q02750); test: Selectivity interaction (KinomeScan (DiscoverX)) EUB0000092b MAP2K1; conditions: at 10 µM
[5] = molecular target: T2, Peripheral plasma membrane protein CASK (Homo sapiens) (UniProt O14936); test: Selectivity interaction (KinomeScan (DiscoverX)) EUB0000655a CASK; conditions: at 10 µM
T2 sequence (whole entry): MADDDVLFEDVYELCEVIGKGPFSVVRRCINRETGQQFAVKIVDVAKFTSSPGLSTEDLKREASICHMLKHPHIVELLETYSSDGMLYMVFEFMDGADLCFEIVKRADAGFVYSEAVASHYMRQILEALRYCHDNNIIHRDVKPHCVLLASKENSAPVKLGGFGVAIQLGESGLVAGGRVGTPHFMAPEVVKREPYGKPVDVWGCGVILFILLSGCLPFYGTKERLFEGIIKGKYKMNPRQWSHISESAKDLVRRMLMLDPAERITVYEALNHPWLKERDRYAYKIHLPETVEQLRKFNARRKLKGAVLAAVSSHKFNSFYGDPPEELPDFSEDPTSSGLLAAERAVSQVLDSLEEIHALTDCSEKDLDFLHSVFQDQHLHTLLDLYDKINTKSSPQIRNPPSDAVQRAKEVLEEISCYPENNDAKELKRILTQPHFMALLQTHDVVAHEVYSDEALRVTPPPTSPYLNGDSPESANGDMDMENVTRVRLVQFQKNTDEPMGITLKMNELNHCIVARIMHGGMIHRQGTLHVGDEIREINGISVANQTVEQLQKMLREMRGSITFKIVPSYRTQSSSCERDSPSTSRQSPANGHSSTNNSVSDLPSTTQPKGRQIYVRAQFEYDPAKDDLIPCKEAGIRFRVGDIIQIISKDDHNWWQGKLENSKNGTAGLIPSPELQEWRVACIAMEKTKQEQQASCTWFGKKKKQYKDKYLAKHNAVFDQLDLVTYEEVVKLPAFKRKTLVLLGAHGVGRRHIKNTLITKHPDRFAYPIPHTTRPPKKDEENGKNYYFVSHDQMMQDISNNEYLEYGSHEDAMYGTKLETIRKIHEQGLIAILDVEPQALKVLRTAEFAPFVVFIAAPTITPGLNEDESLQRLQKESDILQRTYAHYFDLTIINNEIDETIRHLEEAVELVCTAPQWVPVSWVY

[6] = molecular target: Protein-tyrosine kinase 2-beta (Homo sapiens) (UniProt Q14289); test: Selectivity interaction (KinomeScan (DiscoverX)) EUB0000655a PTK2B; conditions: at 10 µM
[7] = molecular target: 5-hydroxytryptamine receptor 1B (Homo sapiens) (UniProt P28222); test: Selectivity interaction (Panel of kinases, GPCRs, ion channels and transporters (enzymatic assay)) EUB0000223bCl HTR1B
[8] = molecular target: Homeodomain-interacting protein kinase 3 (Homo sapiens, UniProt Q9H422); test: Selectivity interaction (ProQinase) EUB0000171b HIPK3
Homeodomain-interacting protein kinase 3, sequence (Q9H422 whole entry, looked up): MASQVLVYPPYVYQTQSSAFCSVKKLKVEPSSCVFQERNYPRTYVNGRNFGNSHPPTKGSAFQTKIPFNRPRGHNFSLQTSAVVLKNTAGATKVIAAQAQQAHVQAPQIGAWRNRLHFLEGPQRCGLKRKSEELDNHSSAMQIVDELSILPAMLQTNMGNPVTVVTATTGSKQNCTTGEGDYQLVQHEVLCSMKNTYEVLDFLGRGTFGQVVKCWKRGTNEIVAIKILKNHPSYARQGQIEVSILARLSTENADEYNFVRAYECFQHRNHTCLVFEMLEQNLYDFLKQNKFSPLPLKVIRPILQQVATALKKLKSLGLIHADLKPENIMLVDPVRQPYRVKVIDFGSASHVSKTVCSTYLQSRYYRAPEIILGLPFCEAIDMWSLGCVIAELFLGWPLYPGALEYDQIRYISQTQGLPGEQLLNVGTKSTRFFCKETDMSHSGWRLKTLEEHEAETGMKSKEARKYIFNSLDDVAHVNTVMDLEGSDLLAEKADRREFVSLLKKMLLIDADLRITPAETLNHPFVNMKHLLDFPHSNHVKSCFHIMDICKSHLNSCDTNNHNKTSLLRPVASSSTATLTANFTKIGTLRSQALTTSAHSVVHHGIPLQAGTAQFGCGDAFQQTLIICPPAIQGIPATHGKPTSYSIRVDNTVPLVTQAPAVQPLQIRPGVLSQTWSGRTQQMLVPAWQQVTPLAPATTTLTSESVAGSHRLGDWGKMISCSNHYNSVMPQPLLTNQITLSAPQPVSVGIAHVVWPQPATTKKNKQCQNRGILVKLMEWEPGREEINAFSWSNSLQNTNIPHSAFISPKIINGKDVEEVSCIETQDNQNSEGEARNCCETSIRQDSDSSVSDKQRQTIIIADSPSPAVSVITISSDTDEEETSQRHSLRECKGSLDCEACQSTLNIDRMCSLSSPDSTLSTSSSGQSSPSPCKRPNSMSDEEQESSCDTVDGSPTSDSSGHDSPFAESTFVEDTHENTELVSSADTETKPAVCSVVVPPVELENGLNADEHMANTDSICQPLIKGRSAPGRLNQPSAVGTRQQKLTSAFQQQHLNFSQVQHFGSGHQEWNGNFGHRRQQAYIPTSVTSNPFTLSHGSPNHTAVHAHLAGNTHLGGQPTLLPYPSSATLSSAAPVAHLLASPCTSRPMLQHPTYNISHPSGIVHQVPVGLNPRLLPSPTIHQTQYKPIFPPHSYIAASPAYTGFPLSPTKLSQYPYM

Tyrosine-protein kinase BTK, sequence (Q06187 whole entry): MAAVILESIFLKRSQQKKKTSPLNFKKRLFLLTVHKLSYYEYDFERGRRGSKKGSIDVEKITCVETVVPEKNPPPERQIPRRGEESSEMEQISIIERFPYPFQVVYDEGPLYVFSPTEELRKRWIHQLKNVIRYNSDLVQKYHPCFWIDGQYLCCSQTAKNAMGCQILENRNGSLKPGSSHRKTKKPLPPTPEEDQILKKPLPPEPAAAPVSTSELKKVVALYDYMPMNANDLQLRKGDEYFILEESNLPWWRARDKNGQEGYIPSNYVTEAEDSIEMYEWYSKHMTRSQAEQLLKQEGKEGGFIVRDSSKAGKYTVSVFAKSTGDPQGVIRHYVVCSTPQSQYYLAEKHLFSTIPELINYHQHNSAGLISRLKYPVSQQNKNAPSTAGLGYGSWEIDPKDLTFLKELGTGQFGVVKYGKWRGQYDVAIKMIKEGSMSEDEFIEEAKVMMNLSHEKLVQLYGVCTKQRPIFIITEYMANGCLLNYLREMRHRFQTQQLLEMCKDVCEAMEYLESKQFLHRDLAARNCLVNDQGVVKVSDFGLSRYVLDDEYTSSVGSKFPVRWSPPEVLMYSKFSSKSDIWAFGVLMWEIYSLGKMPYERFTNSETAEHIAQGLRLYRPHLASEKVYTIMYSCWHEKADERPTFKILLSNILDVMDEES
Protein-tyrosine kinase 2-beta (Homo sapiens), sequence (Q14289 whole entry, looked up): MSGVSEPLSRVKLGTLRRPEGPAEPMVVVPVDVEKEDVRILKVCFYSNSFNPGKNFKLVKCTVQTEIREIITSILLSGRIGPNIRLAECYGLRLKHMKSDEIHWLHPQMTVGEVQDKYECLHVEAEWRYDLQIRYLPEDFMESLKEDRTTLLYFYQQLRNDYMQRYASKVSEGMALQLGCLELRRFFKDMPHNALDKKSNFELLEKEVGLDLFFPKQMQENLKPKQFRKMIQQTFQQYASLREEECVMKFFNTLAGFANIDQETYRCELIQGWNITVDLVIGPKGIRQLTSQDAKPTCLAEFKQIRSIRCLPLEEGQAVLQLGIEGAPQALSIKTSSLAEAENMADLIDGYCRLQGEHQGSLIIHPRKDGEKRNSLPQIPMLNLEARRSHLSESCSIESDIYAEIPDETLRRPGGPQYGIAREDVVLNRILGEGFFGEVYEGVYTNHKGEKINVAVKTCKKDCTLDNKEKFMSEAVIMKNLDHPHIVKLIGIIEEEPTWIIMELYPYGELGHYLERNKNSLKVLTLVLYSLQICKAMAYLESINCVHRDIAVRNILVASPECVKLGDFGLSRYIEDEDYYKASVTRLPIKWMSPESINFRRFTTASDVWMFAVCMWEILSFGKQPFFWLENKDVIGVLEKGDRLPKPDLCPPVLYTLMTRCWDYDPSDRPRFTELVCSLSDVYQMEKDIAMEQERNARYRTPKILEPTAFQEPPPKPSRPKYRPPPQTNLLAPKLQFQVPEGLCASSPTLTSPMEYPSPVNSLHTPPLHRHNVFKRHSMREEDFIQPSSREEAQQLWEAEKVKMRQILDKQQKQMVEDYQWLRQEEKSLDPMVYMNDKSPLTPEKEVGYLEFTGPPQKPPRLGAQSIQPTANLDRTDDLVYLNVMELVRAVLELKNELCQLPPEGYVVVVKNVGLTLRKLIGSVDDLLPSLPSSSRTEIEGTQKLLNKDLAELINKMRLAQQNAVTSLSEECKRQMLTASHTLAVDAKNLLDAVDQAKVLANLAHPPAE
Dual specificity mitogen-activated protein kinase kinase 1, sequence (Q02750 whole entry): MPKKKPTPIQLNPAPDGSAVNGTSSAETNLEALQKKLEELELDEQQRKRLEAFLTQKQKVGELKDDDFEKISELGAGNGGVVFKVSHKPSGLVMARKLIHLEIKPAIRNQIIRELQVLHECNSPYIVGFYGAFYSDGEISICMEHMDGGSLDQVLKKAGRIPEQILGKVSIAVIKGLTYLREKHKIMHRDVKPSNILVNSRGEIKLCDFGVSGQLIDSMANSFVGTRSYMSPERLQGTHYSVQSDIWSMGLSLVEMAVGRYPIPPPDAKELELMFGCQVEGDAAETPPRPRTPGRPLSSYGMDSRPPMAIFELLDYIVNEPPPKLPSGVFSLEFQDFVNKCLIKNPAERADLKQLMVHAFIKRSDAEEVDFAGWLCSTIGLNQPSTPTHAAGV
5-hydroxytryptamine receptor 1B (Homo sapiens), sequence (P28222 whole entry): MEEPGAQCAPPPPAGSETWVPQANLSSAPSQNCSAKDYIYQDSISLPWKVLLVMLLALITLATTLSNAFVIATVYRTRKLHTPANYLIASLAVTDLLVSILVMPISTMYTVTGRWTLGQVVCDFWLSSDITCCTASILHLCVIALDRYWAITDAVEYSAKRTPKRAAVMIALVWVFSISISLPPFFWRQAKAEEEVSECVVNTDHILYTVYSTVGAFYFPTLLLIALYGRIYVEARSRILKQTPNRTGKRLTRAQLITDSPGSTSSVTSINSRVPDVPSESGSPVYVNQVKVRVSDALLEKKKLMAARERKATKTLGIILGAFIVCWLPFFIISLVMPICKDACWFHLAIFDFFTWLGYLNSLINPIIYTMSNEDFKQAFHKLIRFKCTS

CC(=O)Nc1cccc(-n2c(=O)n(C3CC3)c(=O)c3c(Nc4ccc(I)cc4F)n(C)c(=O)c(C)c32)c1
% of control [1]: 111%

CC[C@@H]1[C@H](F)C(=O)N[C@@H]1COc1nccc2cc(C(N)=O)c(OC)cc12 [ZIMLOVISERTIB]
% of inhibition ([2]; at 0.01 µM): -9.7% | % of inhibition ([2]; at 0.04 µM): -8.8% | % of inhibition ([2]; at 0.2 µM): 2.6% | % of inhibition ([2]; at 1 µM): 11.9% | % of inhibition ([2]; at 5 µM): 0.7% | % of inhibition [3]: 7.1%

CCC(=O)N1CCN(c2ccc(-n3c(=O)ccc4cnc5ccc(-c6cnc7ccccc7c6)cc5c43)cc2C(F)(F)F)CC1
% of control [4]: 100%

CN(C)CCOc1ccc(-c2nc(-c3ccncc3)c(-c3ccc4c(c3)CC/C4=N\O)[nH]2)cc1
% of control [5]: 82% | % of control [6]: 100%

COc1cc(C(=O)N2CC[C@@H](O)[C@@H](N)C2)cc2nc(-c3cc4ccccc4n3CC3CC3)n(C)c12
pXC50 [7]: < 4.5 M

C=CC(=O)Nc1cccc(C(=O)Nc2ccc(Nc3cc(-c4[nH]c(SC)nc4C)ccn3)cc2)c1
% of control ([8]; at 1 µM): 93% | % of control ([8]; at 5 µM): 90%
